Results taken from ChEMBL document CHEMBL1201862, “PubChem BioAssay data set” (2004).
The source made the active and inactive calls.

Columns and labels:
[1] = molecular target: Large T antigen (Simian virus 40, UniProt P03070); format: functional, Betapolyomavirus macacae;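 also: Confirmatory-stage PubChem screen for compounds that inhibit SV40 T antigen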
[2] = molecular target: DNA dC->dU-editing enzyme APOBEC-3G (Homo sapiens, UniProt Q9HC16); experiment: Dose Response confirmation of small molecule APOBEC3G DNA Deaminase Inhibitors via a fluorescence-based single-stranded DNA deaminase assay. [Related pubchem assays (depositor defined):AID493012, AID493028]; format: functional
DNA dC->dU-editing enzyme APOBEC-3G, sequence (Q9HC16 whole entry): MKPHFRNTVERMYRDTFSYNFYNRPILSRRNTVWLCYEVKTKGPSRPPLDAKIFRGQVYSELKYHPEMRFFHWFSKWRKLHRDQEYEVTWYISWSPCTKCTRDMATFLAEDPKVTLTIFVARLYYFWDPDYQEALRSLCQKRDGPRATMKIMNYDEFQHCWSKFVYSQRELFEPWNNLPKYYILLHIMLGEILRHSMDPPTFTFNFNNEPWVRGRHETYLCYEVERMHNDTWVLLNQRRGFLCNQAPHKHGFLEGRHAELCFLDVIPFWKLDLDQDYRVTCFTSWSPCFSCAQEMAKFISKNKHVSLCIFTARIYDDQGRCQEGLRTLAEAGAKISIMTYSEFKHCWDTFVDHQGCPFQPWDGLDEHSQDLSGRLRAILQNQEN

[3] = molecular target: T1, Aminopeptidase N (Plasmodium falciparum FcB1/Columbia, UniProt O96935); experiment: malaria alanyl aminopeptidase activity blockers – biochemical, fluorogenic H-Leu-NHMec substrate, 1536-well (AID 1445); parameters: species or system Plasmodium falciparum 3D7, 3D7
T1 sequence (O96935 whole entry): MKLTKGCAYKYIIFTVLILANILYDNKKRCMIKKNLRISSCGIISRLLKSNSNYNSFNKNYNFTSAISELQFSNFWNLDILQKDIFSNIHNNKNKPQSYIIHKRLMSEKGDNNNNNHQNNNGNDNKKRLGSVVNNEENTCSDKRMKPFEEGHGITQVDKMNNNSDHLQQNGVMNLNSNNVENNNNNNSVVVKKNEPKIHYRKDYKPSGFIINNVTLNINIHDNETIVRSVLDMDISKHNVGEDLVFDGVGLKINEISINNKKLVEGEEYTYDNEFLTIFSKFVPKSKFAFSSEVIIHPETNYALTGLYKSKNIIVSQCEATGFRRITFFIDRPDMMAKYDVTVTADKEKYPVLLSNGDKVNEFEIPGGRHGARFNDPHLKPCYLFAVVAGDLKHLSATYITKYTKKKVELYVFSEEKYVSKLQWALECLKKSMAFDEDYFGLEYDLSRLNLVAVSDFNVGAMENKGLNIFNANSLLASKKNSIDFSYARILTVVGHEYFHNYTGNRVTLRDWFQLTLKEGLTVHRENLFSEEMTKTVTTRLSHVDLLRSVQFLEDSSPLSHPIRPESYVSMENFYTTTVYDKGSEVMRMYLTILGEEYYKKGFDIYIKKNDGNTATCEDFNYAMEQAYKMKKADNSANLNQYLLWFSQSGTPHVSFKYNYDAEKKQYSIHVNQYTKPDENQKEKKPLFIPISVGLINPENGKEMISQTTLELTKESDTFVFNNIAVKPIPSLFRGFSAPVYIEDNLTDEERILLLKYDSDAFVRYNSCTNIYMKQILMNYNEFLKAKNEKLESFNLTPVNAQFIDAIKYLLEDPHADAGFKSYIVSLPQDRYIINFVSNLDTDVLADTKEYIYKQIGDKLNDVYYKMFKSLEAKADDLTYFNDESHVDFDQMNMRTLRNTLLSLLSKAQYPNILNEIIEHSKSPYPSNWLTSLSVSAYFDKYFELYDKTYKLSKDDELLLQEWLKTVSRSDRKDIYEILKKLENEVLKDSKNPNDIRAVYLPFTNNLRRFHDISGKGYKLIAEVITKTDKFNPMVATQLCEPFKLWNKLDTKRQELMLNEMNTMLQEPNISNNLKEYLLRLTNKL

[4] = molecular target: Troponin, cardiac muscle (Homo sapiens, UniProt P19429+P45379+P63316); experiment: Fluorescence-based biochemical high throughput dose response assay for activators of the calcium sensitivity of cardiac Regulated Thin Filaments (RTF). [Related pubchem assays (depositor defined):AID493008, AID493018, AID504382, AID504383]; format: protein-complex assay
[5] = molecular target: T2, Leucine aminopeptidase (Plasmodium falciparum 3D7, UniProt Q8IL11); experiment: P. falciparum M17LAP inhibitors, primary screen, biochemical, fluorogenic H-Leu-NHMec substrate, 1536-well (AID 1619); format: functional
T2 sequence (Q8IL11 whole entry): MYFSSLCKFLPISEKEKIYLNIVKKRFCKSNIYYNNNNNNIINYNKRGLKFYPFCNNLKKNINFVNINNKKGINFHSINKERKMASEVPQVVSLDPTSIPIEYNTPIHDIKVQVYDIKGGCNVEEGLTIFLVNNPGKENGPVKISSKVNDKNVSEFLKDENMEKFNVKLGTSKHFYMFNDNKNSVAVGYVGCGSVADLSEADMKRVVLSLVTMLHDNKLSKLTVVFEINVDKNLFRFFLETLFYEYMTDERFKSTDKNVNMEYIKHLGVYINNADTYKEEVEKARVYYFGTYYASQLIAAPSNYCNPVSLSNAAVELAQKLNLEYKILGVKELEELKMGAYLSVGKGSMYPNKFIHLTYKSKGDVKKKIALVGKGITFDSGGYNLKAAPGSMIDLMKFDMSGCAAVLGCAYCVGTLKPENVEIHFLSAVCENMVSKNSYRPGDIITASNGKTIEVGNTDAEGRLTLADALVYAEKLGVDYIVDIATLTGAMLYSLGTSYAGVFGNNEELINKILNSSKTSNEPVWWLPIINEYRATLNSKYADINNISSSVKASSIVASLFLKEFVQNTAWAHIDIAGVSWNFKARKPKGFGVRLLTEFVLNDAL

[6] = molecular target: Eukaryotic translation initiation factor 4E (Mus musculus, UniProt P63073); experiment: blockers of eIF4G binding by eIF4E – biochemical, TR-FRET, dose response (AID 855); format: functional;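 also: potency for disrupting eIF4E binding to eIF4GI seen as loss of FRET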
Eukaryotic translation initiation factor 4E, sequence (P63073 whole entry): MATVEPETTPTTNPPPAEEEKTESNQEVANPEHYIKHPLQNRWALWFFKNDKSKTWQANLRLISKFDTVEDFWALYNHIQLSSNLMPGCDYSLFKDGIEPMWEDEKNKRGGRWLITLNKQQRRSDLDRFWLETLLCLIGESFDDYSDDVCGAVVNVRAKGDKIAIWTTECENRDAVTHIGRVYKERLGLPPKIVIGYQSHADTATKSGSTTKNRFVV

[7] = molecular target: T3, Protein skinhead-1 (Caenorhabditis elegans, UniProt P34707); format: functional
T3 sequence (P34707 whole entry): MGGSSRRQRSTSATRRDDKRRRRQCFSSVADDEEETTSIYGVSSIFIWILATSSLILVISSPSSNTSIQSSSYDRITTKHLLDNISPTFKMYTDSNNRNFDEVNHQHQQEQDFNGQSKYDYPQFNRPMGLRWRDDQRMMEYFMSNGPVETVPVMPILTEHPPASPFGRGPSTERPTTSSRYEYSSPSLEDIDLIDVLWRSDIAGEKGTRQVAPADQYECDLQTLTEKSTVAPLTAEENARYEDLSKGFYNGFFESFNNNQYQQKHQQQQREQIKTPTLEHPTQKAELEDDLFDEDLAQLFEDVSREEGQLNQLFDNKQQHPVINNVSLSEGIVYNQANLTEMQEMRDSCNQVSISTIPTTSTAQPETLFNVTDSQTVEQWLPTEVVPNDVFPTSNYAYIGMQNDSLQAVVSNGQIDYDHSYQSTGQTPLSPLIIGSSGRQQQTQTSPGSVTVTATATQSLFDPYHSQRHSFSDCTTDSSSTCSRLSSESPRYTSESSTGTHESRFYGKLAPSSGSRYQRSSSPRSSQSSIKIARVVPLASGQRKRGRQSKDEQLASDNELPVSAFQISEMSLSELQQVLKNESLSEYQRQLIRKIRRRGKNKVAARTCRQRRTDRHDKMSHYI

[8] = system: INS1; experiment: INS-1E survival protection against cytokine death – cell-based, luminescence, retest, dose response (AID 449756); format: functional; conditions: Rattus norvegicus;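 also: cell death triggered by IL-1 beta plus TNF-alpha plus IFN-gamma mixture; protective hits raise ATP signal compared with cytokine alone wells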
[9] = NIH-3T3 fibroblast cytotoxicity, dose response, cytotoxicity control, cell-based, fluorescence, Alamar Blue, secondary assay (AID 2327); format: functional;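 also: NIH-3T3 mouse fibroblasts cultured with fluconazole at 8 µg/mL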
[10] = system: Vero; experiment: cells; format: functional; conditions: Chlorocebus sabaeus
[11] = fluconazole-exposed Candida albicans growth modulators – fluorescence, retest, confirmation (AID 2467); format: functional, cell-based
[12] = molecular target: Heat shock protein HSP 90-alpha (Homo sapiens, UniProt P07900); format: functional, organism-based
[13] = system: Vero; experiment: cells; format: functional, cell-based; conditions: Chlorocebus sabaeus
[14] = molecular target: T4, DNA repair protein RAD52 homolog (Homo sapiens, UniProt P43351); format: functional, biochemical
T4 sequence (P43351 whole entry): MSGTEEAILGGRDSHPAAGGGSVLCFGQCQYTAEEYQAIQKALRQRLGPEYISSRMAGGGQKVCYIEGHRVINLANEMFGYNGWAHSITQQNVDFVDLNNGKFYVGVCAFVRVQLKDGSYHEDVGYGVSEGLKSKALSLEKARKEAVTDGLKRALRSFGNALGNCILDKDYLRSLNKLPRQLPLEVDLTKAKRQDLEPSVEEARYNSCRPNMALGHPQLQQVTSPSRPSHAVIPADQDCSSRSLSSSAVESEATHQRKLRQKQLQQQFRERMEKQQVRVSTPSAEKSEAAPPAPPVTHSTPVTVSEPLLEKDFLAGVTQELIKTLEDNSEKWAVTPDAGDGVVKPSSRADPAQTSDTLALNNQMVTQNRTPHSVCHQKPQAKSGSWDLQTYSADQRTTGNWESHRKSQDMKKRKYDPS

[15] = molecular target: Cytochrome P450 2C9 (Homo sapiens, UniProt P11712)
Cytochrome P450 2C9, sequence (P11712 whole entry): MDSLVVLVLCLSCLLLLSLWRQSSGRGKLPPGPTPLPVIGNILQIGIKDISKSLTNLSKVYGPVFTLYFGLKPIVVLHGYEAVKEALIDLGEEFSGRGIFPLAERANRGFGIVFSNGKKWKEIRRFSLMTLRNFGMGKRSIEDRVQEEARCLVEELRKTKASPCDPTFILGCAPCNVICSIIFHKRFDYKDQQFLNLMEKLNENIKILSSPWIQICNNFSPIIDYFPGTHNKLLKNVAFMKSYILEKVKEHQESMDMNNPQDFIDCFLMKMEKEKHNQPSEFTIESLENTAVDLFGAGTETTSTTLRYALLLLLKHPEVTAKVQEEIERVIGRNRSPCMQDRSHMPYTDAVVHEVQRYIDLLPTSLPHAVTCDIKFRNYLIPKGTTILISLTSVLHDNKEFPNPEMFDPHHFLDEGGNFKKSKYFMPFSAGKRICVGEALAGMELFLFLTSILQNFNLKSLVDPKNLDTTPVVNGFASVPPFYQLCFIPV

[16] = molecular target: T5, Cytochrome P450 1A2 (Homo sapiens, UniProt P05177);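 also: PubChem cytochrome P450 panel assay, CYP1A2 panel member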
T5 sequence (P05177 whole entry): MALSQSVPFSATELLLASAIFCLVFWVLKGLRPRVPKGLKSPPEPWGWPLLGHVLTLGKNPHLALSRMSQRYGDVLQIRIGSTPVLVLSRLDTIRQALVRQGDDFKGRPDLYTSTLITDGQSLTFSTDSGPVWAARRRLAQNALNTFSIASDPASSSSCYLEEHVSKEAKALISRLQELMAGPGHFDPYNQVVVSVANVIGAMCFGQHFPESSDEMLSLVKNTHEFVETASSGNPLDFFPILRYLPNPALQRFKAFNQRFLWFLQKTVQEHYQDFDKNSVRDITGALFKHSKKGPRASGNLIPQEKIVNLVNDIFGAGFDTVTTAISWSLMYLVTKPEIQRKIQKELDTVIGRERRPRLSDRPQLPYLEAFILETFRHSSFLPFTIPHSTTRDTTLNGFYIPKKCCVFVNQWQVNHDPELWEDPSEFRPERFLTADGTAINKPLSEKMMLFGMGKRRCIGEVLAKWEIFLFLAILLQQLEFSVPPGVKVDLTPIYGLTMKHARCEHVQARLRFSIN

[17] = molecular target: Cytochrome P450 2D6 (Homo sapiens, UniProt P10635);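 also: CYP2D6 member of a cytochrome P450 panel assay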
Cytochrome P450 2D6, sequence (P10635 whole entry): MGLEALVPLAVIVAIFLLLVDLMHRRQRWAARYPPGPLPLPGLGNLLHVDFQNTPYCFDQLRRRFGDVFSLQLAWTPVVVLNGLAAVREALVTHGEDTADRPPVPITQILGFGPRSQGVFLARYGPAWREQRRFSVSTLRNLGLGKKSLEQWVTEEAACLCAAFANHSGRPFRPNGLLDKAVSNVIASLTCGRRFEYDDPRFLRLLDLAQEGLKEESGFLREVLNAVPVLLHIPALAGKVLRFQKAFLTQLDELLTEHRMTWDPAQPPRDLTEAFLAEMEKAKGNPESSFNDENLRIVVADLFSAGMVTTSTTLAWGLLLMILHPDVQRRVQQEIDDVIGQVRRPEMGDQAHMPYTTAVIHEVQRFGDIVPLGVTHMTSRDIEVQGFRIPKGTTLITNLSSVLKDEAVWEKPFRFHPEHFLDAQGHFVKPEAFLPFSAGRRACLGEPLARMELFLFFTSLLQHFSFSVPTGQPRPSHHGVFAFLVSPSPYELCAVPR

[18] = molecular target: T6, Microphthalmia-associated transcription factor (Homo sapiens, UniProt O75030); experiment: reducers of TRPM1 reporter luminescence, concentration series – cell-based, SK-MEL-5, cherry-picked, set 3, MITF inhibitor project, dose response (AID 493073); format: functional;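 also: SK-MEL-5 melanoma cells with luciferase driven by the MITF target TRPM1 promoter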
T6 sequence (O75030 whole entry): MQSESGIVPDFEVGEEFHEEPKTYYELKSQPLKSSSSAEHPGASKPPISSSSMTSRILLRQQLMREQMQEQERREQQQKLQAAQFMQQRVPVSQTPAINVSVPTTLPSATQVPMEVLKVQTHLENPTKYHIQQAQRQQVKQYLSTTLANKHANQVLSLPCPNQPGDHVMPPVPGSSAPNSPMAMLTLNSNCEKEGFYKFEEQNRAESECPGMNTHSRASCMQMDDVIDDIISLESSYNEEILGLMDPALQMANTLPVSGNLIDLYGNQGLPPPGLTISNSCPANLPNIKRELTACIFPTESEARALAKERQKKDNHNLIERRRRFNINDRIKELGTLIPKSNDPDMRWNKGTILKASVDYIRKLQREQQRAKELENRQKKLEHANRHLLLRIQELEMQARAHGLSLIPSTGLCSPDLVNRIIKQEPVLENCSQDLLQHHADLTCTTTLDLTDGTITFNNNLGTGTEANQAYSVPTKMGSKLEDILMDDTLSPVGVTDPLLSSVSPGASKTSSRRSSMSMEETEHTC

Large T antigen, sequence (P03070 whole entry): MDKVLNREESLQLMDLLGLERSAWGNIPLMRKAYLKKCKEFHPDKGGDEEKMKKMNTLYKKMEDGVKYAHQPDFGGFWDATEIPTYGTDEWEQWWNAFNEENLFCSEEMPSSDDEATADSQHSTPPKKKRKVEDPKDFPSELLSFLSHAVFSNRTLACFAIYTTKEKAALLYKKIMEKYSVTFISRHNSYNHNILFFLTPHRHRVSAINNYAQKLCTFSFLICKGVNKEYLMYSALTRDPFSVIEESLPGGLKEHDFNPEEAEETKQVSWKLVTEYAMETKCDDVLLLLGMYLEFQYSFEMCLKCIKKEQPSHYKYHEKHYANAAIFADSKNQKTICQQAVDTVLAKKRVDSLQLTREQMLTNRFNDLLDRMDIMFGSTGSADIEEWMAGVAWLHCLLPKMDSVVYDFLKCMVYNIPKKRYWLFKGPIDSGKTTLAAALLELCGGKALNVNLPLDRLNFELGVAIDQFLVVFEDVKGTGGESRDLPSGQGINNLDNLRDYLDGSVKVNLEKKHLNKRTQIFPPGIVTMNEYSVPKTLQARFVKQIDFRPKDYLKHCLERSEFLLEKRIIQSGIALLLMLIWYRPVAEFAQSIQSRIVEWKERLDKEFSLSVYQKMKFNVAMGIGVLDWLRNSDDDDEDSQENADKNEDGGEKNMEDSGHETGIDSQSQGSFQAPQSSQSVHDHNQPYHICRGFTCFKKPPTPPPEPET

Cc1ccc(C2(C)NC(=O)N(CC(=O)Nc3nc(-c4ccccn4)cs3)C2=O)cc1 (stereo not drawn)
IC50 [1]: > 100 µM (active) | IC50 [2]: 25.6 µM (active)

C=CCn1c(=N)c(C(=O)NCCCOC)cc2c(=O)n3cccc(C)c3nc21
IC50 [3]: 47.6 µM (active)

S=C(Nc1cc(Cl)ccc1Oc1ccccc1)N1CCN(c2ccccn2)CC1
EC50 [4]: > 71.4 µM (inactive)

Cc1ccc(C(=O)Nc2nc(=O)n(C(=O)c3ccccc3Cl)s2)cc1
IC50 [3]: 38.8 µM (active) | IC50 [5]: 13.8 µM (active)

CCOC(=O)c1ccc2c(c1)nc(SCC(=O)c1cc3ccccc3o1)n2CC
IC50 [6]: > 64 µM (inactive) | IC50 [7]: > 100 µM (inactive)

CCCCOc1ccc(C(=O)NNC(=S)NC(=O)CC)cc1
AC50 [8]: 3.17 µM (active) | EC50 [9]: > 160 µM (inactive) | CC50 [10]: 13.2 µM (active) | EC50 [11]: 0.621 µM (active) | AC50 [12]: 4.33 µM (active) | IC50 [13]: 5.78 µM (active)

O=C1NN=C(CSc2nnc(S)s2)CS1
IC50 [2]: 9.78 µM (active)

CCc1nc(N=C(N)N)nc2ccccc12
AC50 [14]: 20.2 µM (active) | IC50 [3]: 48.5 µM (active)

Cc1cc(OCc2nnn[nH]2)c2c3c(c(=O)oc2c1)CCCC3
IC50 [3]: 68.9 µM (active)

COc1ccccc1NC(=O)c1ccc(NC(=O)c2cc3c(s2)CCC3)cc1
IC50 [6]: > 64 µM (inactive)

COc1cccc(Cn2c(=O)c(-c3cccs3)nc3cnc(N4CCN(C)CC4)nc32)c1
AC50 [15]: inconclusive | AC50 [16]: 5.01 µM (inconclusive)

COc1ccccc1/C=C/C=C1\Oc2c(ccc(O)c2CN2CCN(CCO)CC2)C1=O
EC50 [4]: 1.37 µM (active)

CN=C(S)N=Nc1c(O)[nH]c2ccccc12
IC50 [3]: 47.9 µM (active)

CN(C)c1ccc(-c2cc(Nc3ccc(F)cc3)ncn2)cc1
AC50 [15]: inconclusive | AC50 [17]: 39.8 µM (inconclusive)

C/C(NCC1CCCO1)=C1/C(=O)NC(=O)N(c2ccccc2)C1=O (stereo not drawn)
IC50 [6]: > 64 µM (inactive)

CC(NC(=O)C12CC3CC(CC(C3)C1)C2)C(=O)NN=Cc1ccc([N+](=O)[O-])o1 (stereo not drawn)
AC50 [18]: 7.79 µM (active)

COc1ccc(OC)c(N2C(=O)/C(=C/NCCN3CCNCC3)C(=O)NC2=S)c1
EC50 [4]: > 71.5 µM (inactive)

Cc1ccc(S(=O)(=O)CC(O)CN2CCCC2=O)cc1 (stereo not drawn)
AC50 [15]: inconclusive

O=C(Nc1cccc2ccccc12)c1ccc(Br)o1
IC50 [6]: > 64 µM (inactive)

Sc1nnc(-c2ccccn2)n1/N=C/c1ccccc1
IC50 [2]: 9.26 µM (active)

COC(COC(N)=O)C1=C(N2CC2)C(=O)C(C)=C(N2CC2)C1=O (stereo not drawn) [CARBOQUONE]
CC50 [10]: 0.3 µM (active) | IC50 [13]: > 25 µM (active)
